Calls of active or inactive are those of the source. No cut-off for these calls is given here.
Legend:
Oryza sativa = experiment: Phytotoxicity against Oryza sativa cv. Koshihikari (rice) at 500 g a.i/ha measured after 14 days; type: organism-based; settings: in vivo, 336 h
Rotala indica [1] = experiment: Pre-emergence herbicidal activity against Rotala indica assessed as bleaching of stem/leaf parts; type: functional, organism-based
Echinochloa oryzicola [2] = experiment: Pre-emergence herbicidal activity against Echinochloa oryzicola at 500 g a.i/ha measured after 14 days; type: functional, organism-based
Rotala indica [3] = experiment: Post-emergence herbicidal activity against Rotala indica assessed as bleaching of stem/leaf parts; type: functional, organism-based
[4] = tested on: Schoenoplectiella juncoides; experiment: Pre-emergence herbicidal activity against Schoenoplectiella juncoides assessed as bleaching of stem/leaf parts; type: functional, organism-based
Cyperus difformis [5] = experiment: Pre-emergence herbicidal activity against Cyperus difformis assessed as bleaching of stem/leaf parts; type: functional, organism-based
Pontederia vaginalis [6] = experiment: Post-emergence herbicidal activity against Monochoria vaginalis assessed as bleaching of stem/leaf parts; type: functional, organism-based
[7] = tested on: Schoenoplectiella juncoides; experiment: Post-emergence herbicidal activity against Schoenoplectiella juncoides assessed as bleaching of stem/leaf parts; type: functional, organism-based; note: test concentration or dose not given here
Echinochloa oryzicola [8] = experiment: Post-emergence herbicidal activity against Echinochloa oryzicola assessed as bleaching of stem/leaf parts; type: functional, organism-based
Pontederia vaginalis [9] = experiment: Pre-emergence herbicidal activity against Monochoria vaginalis at 500 g a.i/ha measured after 14 days; type: functional, organism-based
Elatine triandra [10] = experiment: Post-emergence herbicidal activity against Elatine triandra assessed as bleaching of stem/leaf parts; type: functional, organism-based; note: test concentration or dose not given here
Lindernia procumbens [11] = experiment: Post-emergence herbicidal activity against Lindernia procumbens assessed as bleaching of stem/leaf parts; type: functional, organism-based; note: test concentration or dose not given here
Rotala indica [12] = experiment: Pre-emergence herbicidal activity against Rotala indica at 500 g a.i/ha measured after 14 days; type: functional, organism-based
Echinochloa oryzicola [13] = experiment: Pre-emergence herbicidal activity against Echinochloa oryzicola assessed as bleaching of stem/leaf parts; type: functional, organism-based
Elatine triandra [14] = experiment: Pre-emergence herbicidal activity against Elatine triandra at 500 g a.i/ha measured after 14 days; type: functional, organism-based
Pontederia vaginalis [15] = experiment: Pre-emergence herbicidal activity against Monochoria vaginalis assessed as bleaching of stem/leaf parts; type: functional, organism-based
Ammannia multiflora [16] = experiment: Pre-emergence herbicidal activity against Ammannia multiflora at 500 g a.i/ha measured after 14 days; type: functional, organism-based
Elatine triandra [17] = experiment: Pre-emergence herbicidal activity against Elatine triandra assessed as bleaching of stem/leaf parts; type: functional, organism-based
[18] = tested on: Schoenoplectiella juncoides; experiment: Pre-emergence herbicidal activity against Schoenoplectiella juncoides at 500 g a.i/ha measured after 14 days; type: functional, organism-based
Cyperus difformis [19] = experiment: Pre-emergence herbicidal activity against Cyperus difformis at 500 g a.i/ha measured after 14 days; type: functional, organism-based
Lindernia procumbens [20] = experiment: Pre-emergence herbicidal activity against Lindernia procumbens assessed as bleaching of stem/leaf parts; type: functional, organism-based
Cyperus difformis [21] = experiment: Post-emergence herbicidal activity against Cyperus difformis assessed as bleaching of stem/leaf parts; type: functional, organism-based; note: test concentration or dose not given here
Lindernia procumbens [22] = experiment: Pre-emergence herbicidal activity against Lindernia procumbens at 500 g a.i/ha measured after 14 days; type: functional, organism-based
Ammannia multiflora [23] = experiment: Pre-emergence herbicidal activity against Ammannia multiflora assessed as bleaching of stem/leaf parts; type: functional, organism-based
Ammannia multiflora [24] = experiment: Post-emergence herbicidal activity against Ammannia multiflora assessed as bleaching of stem/leaf parts; type: functional, organism-based

SMILES | Activity (Oryza sativa) | Activity (Rotala indica [1]) | Activity (Echinochloa oryzicola [2]) | Activity (Rotala indica [3]) | Activity [4] | Activity (Cyperus difformis [5]) | Activity (Pontederia vaginalis [6]) | Activity [7] | Activity (Echinochloa oryzicola [8]) | Activity (Pontederia vaginalis [9]) | Activity (Elatine triandra [10]) | Activity (Lindernia procumbens [11]) | Activity (Rotala indica [12]) | Activity (Echinochloa oryzicola [13]) | Activity (Elatine triandra [14]) | Activity (Pontederia vaginalis [15]) | Activity (Ammannia multiflora [16]) | Activity (Elatine triandra [17]) | Activity [18] | Activity (Cyperus difformis [19]) | also measured
CC(NC(=O)c1cn(C)nc1Oc1cccc(C(F)(F)F)c1)c1ccccc1 (stereo not given) | Non-toxic | Active | inactive | Active | Active | Active | Active | Active | Active | inactive | Active | Active | inactive | Active | inactive | Active | inactive | Active | inactive | inactive | Activity (Lindernia procumbens [20]): Active; Activity (Cyperus difformis [21]): Active; Activity (Lindernia procumbens [22]): inactive; Activity (Ammannia multiflora [23]): Active; Activity (Ammannia multiflora [24]): Active
Cn1cc(C(=O)NC2CC2)c(Oc2cccc(C(F)(F)F)c2)n1 | Non-toxic | Active | inactive | Active | Active | Active | Active | Active | Active | inactive | Active | Active | inactive | Active | inactive | Active | inactive | Active | inactive | inactive | Activity (Lindernia procumbens [20]): Active; Activity (Cyperus difformis [21]): Active; Activity (Lindernia procumbens [22]): inactive; Activity (Ammannia multiflora [23]): Active; Activity (Ammannia multiflora [24]): Active
Cn1cc(NC(=O)c2ccccc2)c(Oc2cccc(C(F)(F)F)c2)n1 | Non-toxic | Active | Active | Active | Active | Active | Active | Active | Active | inactive | Active | Active | inactive | Active | inactive | Active | inactive | Active | inactive | inactive | Activity (Lindernia procumbens [20]): Active; Activity (Cyperus difformis [21]): Active; Activity (Lindernia procumbens [22]): inactive; Activity (Ammannia multiflora [23]): Active; Activity (Ammannia multiflora [24]): Active
Cn1cc(C(=O)NCC2CCCO2)c(Oc2cccc(C(F)(F)F)c2)n1 (stereo not given) | Non-toxic | Active | inactive | Active | Active | Active | Active | Active | Active | inactive | Active | Active | inactive | Active | inactive | Active | inactive | Active | inactive | inactive | Activity (Lindernia procumbens [20]): Active; Activity (Cyperus difformis [21]): Active; Activity (Lindernia procumbens [22]): inactive; Activity (Ammannia multiflora [23]): Active; Activity (Ammannia multiflora [24]): Active
Cn1cc(C(=O)NCc2cccc(Cl)c2)c(Oc2cccc(C(F)(F)F)c2)n1 | Non-toxic | Active | inactive | Active | Active | Active | Active | Active | Active | inactive | Active | Active | inactive | Active | inactive | Active | inactive | Active | inactive | inactive | Activity (Lindernia procumbens [20]): Active; Activity (Cyperus difformis [21]): Active; Activity (Lindernia procumbens [22]): inactive; Activity (Ammannia multiflora [23]): Active; Activity (Ammannia multiflora [24]): Active
Cn1cc(NC(=O)c2ccc(F)cc2F)c(Oc2cccc(C(F)(F)F)c2)n1 | Non-toxic | Active | inactive | Active | Active | Active | Active | Active | Active | inactive | Active | Active | inactive | Active | inactive | Active | inactive | Active | inactive | inactive | Activity (Lindernia procumbens [20]): Active; Activity (Cyperus difformis [21]): Active; Activity (Lindernia procumbens [22]): inactive; Activity (Ammannia multiflora [23]): Active; Activity (Ammannia multiflora [24]): Active
C#CCNC(=O)c1cn(C)nc1Oc1cccc(C(F)(F)F)c1 | Non-toxic | Active | inactive | Active | Active | Active | Active | Active | Active | inactive | Active | Active | inactive | Active | inactive | Active | inactive | Active | inactive | inactive | Activity (Lindernia procumbens [20]): Active; Activity (Cyperus difformis [21]): Active; Activity (Lindernia procumbens [22]): inactive; Activity (Ammannia multiflora [23]): Active; Activity (Ammannia multiflora [24]): Active

Reference: ChEMBL document CHEMBL3046607, “Synthesis and Herbicidal Activity of New 1-Alkyl-3-aryloxypyrazole-4-carboxamide Derivatives” (J Pestic Sci, 2004)
